Results reported in patent publication US8940892B2, “Triazine derivatives for use in the treatment of malaria” (CSIR, priority 2009, dated 2015).

Columns and labels:
[1] = test system: Plasmodium falciparum (FCR-3); test: Antimalarial activity against Plasmodium falciparum FCR-3; type: cell-based; conditions: FCR3, FCR-3 strain
[2] = Cytotoxicity SRB assay (HeLa); type: cell-based; conditions: human, HeLa cells, read-out: Cytotox SRB (HeLa) IC50
[3] = test system: P. falciparum strains resistant to Pyr and CG; conditions: even against strains highly resistant to other DHFR inhibitors; cited from earlier work
[4] = in vivo; cited from earlier work

Compound	IC50 [1] [µM]	IC50 [2] [µM]	effective concentration in vitro [3]	gastrointestinal (GI) tolerability [4]
NC1=NC(c2ccc(C(F)(F)F)cc2)N(CCCCCOc2ccc(Cl)cc2)C(N)=N1 (stereo not shown) [No. 44]	3.98 ± 0.612	–	–	–
NC1=NC(c2ccccc2)N(CCOc2ccc(Cl)cc2)C(N)=N1 (stereo not shown) [No. 5]	4.83 ± 0.689	–	–	–
NC1=NC(c2ccc(C(F)(F)F)cc2)N(CCCOc2ccc(Cl)c(Cl)c2)C(N)=N1 (stereo not shown) [No. 25]	4.53 ± 0.631	13.1	–	–
NC1=NC(c2ccc(Cl)cc2Cl)N(CCCOc2ccc(Cl)cc2)C(N)=N1 (stereo not shown) [No. 39]	2.51 ± 0.667	12.1	–	–
NC1=NC(c2ccc(Cl)c(F)c2)N(CCCOc2ccc(Cl)c(Cl)c2)C(N)=N1 (stereo not shown) [No. 30]	0.591 ± 0.077	14.5	–	–
NC1=NC(c2ccc(Cl)cc2)N(CCCOc2ccc(Cl)c(Cl)c2)C(N)=N1 (stereo not shown) [No. 34]	0.061 ± 0.036	13.4	–	–
NC1=NC(c2ccccc2)N(CCOc2ccc(Cl)c(Cl)c2)C(N)=N1 (stereo not shown) [No. 6]	2.12 ± 0.75	–	–	–
NC1=NC(c2ccc(F)cc2)N(CCCOc2ccc(Cl)c(Cl)c2)C(N)=N1 (stereo not shown) [No. 29]	35.8 ± 8.97	–	–	–
NC1=NC(c2cccc(Cl)c2)N(CCCOc2ccc(Cl)cc2)C(N)=N1 (stereo not shown) [No. 21]	0.156 ± 0.012	14.1	–	–
NC1=NC(c2ccccc2)N(CCCOc2cccc(C(F)(F)F)c2)C(N)=N1 (stereo not shown) [No. 12]	0.0307 ± 0.0102	14.2	–	–
NC1=NC(c2ccccc2F)N(CCCOc2ccc(Cl)cc2)C(N)=N1 (stereo not shown) [No. 23]	0.412 ± 0.08	52.2	–	–
NC1=NC(c2ccccc2Cl)N(CCCOc2ccc(Cl)cc2)C(N)=N1 (stereo not shown) [No. 18]	0.859	15.7	–	–
NC1=NC(c2ccccc2)N(CCCOc2ccc(Cl)cc2)C(N)=N1 (stereo not shown) [No. 8]	0.055 ± 0.01	39	–	–
Cc1cccc(C2N=C(N)N=C(N)N2CCCOc2ccc(Cl)cc2)c1 (stereo not shown) [No. 41]	0.05 ± 0.04	–	–	–
NC1=NC(c2ccccc2C(F)(F)F)N(CCCOc2ccc(Cl)cc2)C(N)=N1 (stereo not shown) [No. 24]	3.24 ± 0.451	19	–	–
COc1cc(C)ccc1OCCCN1C(N)=NC(N)=NC1c1ccccc1 (stereo not shown) [No. 42]	0.047 ± 0.01	–	–	–
CC1(C)N=C(N)N=C(N)N1OCCCOc1cc(Cl)c(Cl)cc1Cl [WR99210]	–	–	nanomolar (nM) range	unacceptable
NC1=NC(c2ccccc2)N(CCCOc2ccccc2F)C(N)=N1 (stereo not shown) [No. 14]	0.525 ± 0.0762	67.6	–	–
COc1ccc(OCCCN2C(N)=NC(N)=NC2c2ccccc2)cc1 (stereo not shown) [No. 13]	0.0603 ± 0.0087	253	–	–
NC1=NC(c2ccccc2)N(CCc2ccc(Cl)c(Cl)c2)C(N)=N1 (stereo not shown) [No. 4]	4.77 ± 0.297	–	–	–
NC1=NC(c2ccccc2)N(CCc2ccc(Cl)cc2)C(N)=N1 (stereo not shown) [No. 3]	7.16 ± 0.626	–	–	–
NC1=NC(c2cccc(OC(F)(F)F)c2)N(CCCOc2ccc(Cl)cc2)C(N)=N1 (stereo not shown) [No. 40]	> 50	–	–	–
NC1=NC(c2ccc(C(F)(F)F)cc2)N(CCCOc2ccc(Cl)cc2)C(N)=N1 (stereo not shown) [No. 10]	3.37 ± 0.168	11	–	–

Compound	IC50 [1] [µM]	IC50 [2] [µM]	effective concentration in vitro [3]	gastrointestinal (GI) tolerability [4]
NC1=NC(c2ccccc2Cl)N(CCCOc2ccc(Cl)c(Cl)c2)C(N)=N1 (stereo not shown) [No. 31]	8.61 ± 0.998	13.7	–	–
NC1=NC(c2ccccc2)N(CCCOc2ccccc2Cl)C(N)=N1 (stereo not shown) [No. 15]	0.171 ± 0.027	88.8	–	–
NC1=NC(c2ccccc2)N(CCCOc2ccc(Br)cc2)C(N)=N1 (stereo not shown) [No. 43]	0.024 ± 0.017	–	–	–
NC1=NC(c2ccccc2)N(Cc2ccc(Cl)c(Cl)c2)C(N)=N1 (stereo not shown) [No. 2]	4.32 ± 1.19	–	–	–
COc1cccc(C2N=C(N)N=C(N)N2CCCOc2ccc(Cl)cc2)c1F (stereo not shown) [No. 37]	0.077 ± 0.032	33.3	–	–
NC1=NC(c2ccc(Cl)c(F)c2)N(CCCOc2ccc(Cl)cc2)C(N)=N1 (stereo not shown) [No. 20]	1.59	13.7	–	–
NC1=NC(c2cc(Cl)ccc2Cl)N(CCCOc2ccc(Cl)cc2)C(N)=N1 (stereo not shown) [No. 27]	0.926 ± 0.128	10.9	–	–
NC1=NC(c2ccccc2)N(CCCOc2ccc(Cl)c(Cl)c2)C(N)=N1 (stereo not shown) [No. 9]	0.0398 ± 0.01	33.5	–	–
NC1=NC(c2ccc(F)cc2)N(CCCOc2ccc(Cl)cc2)C(N)=N1 (stereo not shown) [No. 22]	0.155 ± 0.048	–	–	–
NC1=NC(c2ccccc2)N(CCCOc2ccc(C(F)(F)F)cc2)C(N)=N1 (stereo not shown) [No. 17]	0.0444 ± 0.0068	–	–	–
COc1ccc(C2N=C(N)N=C(N)N2CCCOc2ccc(Cl)cc2)cc1 (stereo not shown) [No. 19]	0.046 ± 0.017	25	–	–
NC1=NC(c2ccccc2F)N(CCCOc2ccc(Cl)c(Cl)c2)C(N)=N1 (stereo not shown) [No. 28]	0.337 ± 0.095	29.5	–	–
NC1=NC(c2ccccc2Cl)N(CCCCOc2ccc(Cl)c(Cl)c2)C(N)=N1 (stereo not shown) [No. 7]	2.57 ± 0.7	–	–	–
NC1=NC(c2ccccc2)N(CCCOc2ccc(F)cc2)C(N)=N1 (stereo not shown) [No. 16]	0.395 ± 0.109	–	–	–
NC1=NC(c2ccc(Cl)cc2)N(CCCOc2ccc(Cl)cc2)C(N)=N1 (stereo not shown) [No. 32]	0.156 ± 0.129	15.6	–	–
CC1(C)N=C(N)N=C(N)N1c1ccc(Cl)cc1 [No. 1, Cycloguanil, reference compound]	8.15 ± 4.13	–	–	–
NC1=NC(c2cccc(Cl)c2F)N(CCCOc2ccc(Cl)cc2)C(N)=N1 (stereo not shown) [No. 33]	0.679 ± 0.221	23	–	–
NC1=NC(c2ccccc2C(F)(F)F)N(CCCOc2ccc(Cl)c(Cl)c2)C(N)=N1 (stereo not shown) [No. 26]	3.06 ± 0.042	11.8	–	–
NC1=NC(c2cccc(Cl)c2F)N(CCCOc2ccc(Cl)c(Cl)c2)C(N)=N1 (stereo not shown) [No. 35]	0.098 ± 0.005	13.6	–	–
NC1=NC(c2ccc(SC(F)(F)F)cc2)N(CCCOc2ccc(Cl)cc2)C(N)=N1 (stereo not shown) [No. 36]	2.39 ± 0.03	–	–	–
NC1=NC(c2ccccc2)N(CCCOc2ccc(Cl)cc2Cl)C(N)=N1 (stereo not shown) [No. 11]	0.000151 ± 7.9e-05	32.6	–	–
NC1=NC(c2ccc(F)cc2F)N(CCCOc2ccc(Cl)cc2)C(N)=N1 (stereo not shown) [No. 38]	0.163 ± 0.05	31.8	–	–
